The nature of data set [1]: Chromatographic Hydrophobicity Index (CHI). In kind it is physicochemical. An excerpt:
The assay is a chromatographic fast gradient reversed-phase method which allows to characterize the lipophilicity of compounds in high throughput screening regime at three different pH values (2.0; 7.4; 10.5). The so defined CHI is obtained from the gradient (buffer/Acetonitrile) retention time after calibrating the chromatographic system with a test mixture of ten known standard compounds. For most compounds, CHI is between 0 and 100 and it approximates the percentage (by volume) of acetonitrile required to achieve an equal distribution of compound between the mobile and the lipophilic stationary phase of a C18 chromatographic column. Compounds that are not retained on the column are assigned to a CHI value < 0, which means very low lipophilicity. For highly lipophilic compounds, which are strongly retained by the column, a CHI value of >100 is assigned. For any value in between, the actual CHI value is calculated based on the calibration line of the reference compounds [49].

The subject of data set [2] is SH-SY5Y neuroblastoma human cell line. As to the kind of experiment: Cytotoxicity in SH-SY5Y cells (ATP viability assay). It counts as cell-based. As to conditions: 48 h. As to the method:
The neuroblastoma cell line SHSY-5Y (ATCC CRL2266) was cultured in EMEM ATCC medium supplemented with 10% FBS (Euroclone CAT No. ECS0180D), 100 units/mL penicillin, and 100 ug/mL streptomycin sulphate (Euroclone CAT No. ECB3001). Cells were grown at 37 °C in an atmosphere of 5% CO2 and plated at 10,000 cells/well in a 96-well plate (Corning Cat. N. 3610). The compounds were dissolved at a concentration of 10 mM in DMSO. Cells were stimulated for 48 h at 37 °C with serial dilutions of the compounds at the following concentrations: 0.1, 1, 10, 50, 100, and 200 μM and dispensed with an HP Dispenser (Tecan), as triplicates for each concentration. DMSO normalisation at 1.5% was performed in each well.
Cell viability was evaluated by measuring ATP levels using CellTiter Glo (Promega Cat.n. G7570) according to manufacturer’s instructions.

Data set [3] concerns Caco-2 cells. Kind of data set: Caco-2 intestinal permeability. To be noted: A→B, relative to tolcapone. It counts as in vitro ADME, human. The method, then: Caco-2 cells (cod. HTB-37) were bought from ATCC (American Type Culture Collection, Rockville, MD, USA). Caco-2 cells were cultured for 21 days on a 24 trans-well plate to reach the right confluence and differentiate until the formation of the intestinal epithelium mimetic monolayer. The test substance permeability was measured in both directions (apical to basolateral [A→B] and basolateral to apical [B→A]) across the cell monolayer. The assay was carried out in HBSS transport medium at pH 7.4. Test substance at single concentration (10 μM) was tested in duplicate at one time point (60 min). Monolayer integrity of Caco-2 cells was evaluated by TEER measurements during the experiment and by Lucifer Yellow test after the incubation with the test compound. The concentrations of the test substance and/or reference controls were measured by LC-MS/MS.
When the inhibitor leads the efflux ratio to a significant reduction (>50%) or to unity, the test compound is classified as a probable substrate of that efflux transporter. As control, the modulation of the efflux ratio of a reference known substrate (Digoxin) was evaluated with or without the respectively inhibitors in every experiment. […] In parallel, mass balance (%) of recovered test substance was also determined. […] Outside these ranges the permeability data is not reliable.
Background: Passage across Caco-2 layers is used to estimate intestinal permeability.

For data set [4] the following is noted: plasma; cited from earlier work.

The structures appear in SMILES notation.

As a reminder, the EC50 is the concentration giving half of the maximal effect. Low readings indicate higher potency in that assay, high ones lower potency in that assay. What is called melting point is the temperature, or range, at which the solid turns liquid. Usually half-life stands for how long it takes for the measured level to halve.

`COc1cc(C(=O)c2cc(C)cc(C)c2)cc([N+](=O)[O-])c1O` [Compound 1, (4-Hydroxy-3-methoxy-5-nitrophenyl)-1-(3,5-dimethylphenyl)methanone] came in with a melting point of 144 to 145 °C. Further, in data set [1], the “CHI (pH 2.0)” value was determined as 97.8, the “CHI (pH 7.4)” value was 55.5 and the “CHI (pH 10.5)” value is listed as 51.7. The same compound gave an EC50 in data set [2] of 172 ± 5 µM. Also, the “increase of permeability Papp value (A→B) compared to tolcapone” value in data set [3] is 2.5 fold.
For `COc1cc(C(=O)c2ccc(C)cc2)cc([N+](=O)[O-])c1O` [3-OMT, 3-O-methyltolcapone], in data set [1], the “CHI (pH 2.0)” value turned out to be 89.2, the “CHI (pH 7.4)” value is 50.2 and the “CHI (pH 10.5)” value is 46.0. The same compound yielded a half-maximal effective concentration (EC50) in data set [2] of 226.3 ± 1.3 µM. For the same compound, the half-life in data set [4] was 40.9 h.
`COc1cc(C(=O)c2ccc(C)cc2C)cc([N+](=O)[O-])c1O` [Compound 2, (4-Hydroxy-3-methoxy-5-nitrophenyl)-1-(2,4-dimethylphenyl)methanone] showed a melting point of 126 to 127 °C. For the same compound, in data set [1], the “CHI (pH 2.0)” value came to 96.1, the “CHI (pH 7.4)” value was 53.8 and the “CHI (pH 10.5)” value was determined as 50.2. This compound also yielded a concentration giving a half-maximal response (EC50) in data set [2] of 174 ± 3.7 µM. Further, the “increase of permeability Papp value (A→B) compared to tolcapone” value in data set [3] came out at 2.5 fold.

The record behind these values is paper PMC10779086, “3-O-Methyltolcapone and Its Lipophilic Analogues Are Potent Inhibitors of Transthyretin Amyloidogenesis with High Permeability and Low Toxicity” (International Journal of Molecular Sciences, 2023).
